From patent US11702422B2, “Imidazopyridazines as modulators of IL-17” (Janssen Pharmaceutica NV, priority 2020, dated 2023) come the findings set out here.

Assay [1] relates to IL-17A-induced G-CSF production in human normal keratinocyte (NHK). In words: NHK Assay: IL-17A-induced G-CSF production in human normal keratinocytes. It counts as cell-based. The note with it: Homo sapiens, Keratinocyte, 24 h, adult normal human keratinocytes, IL-17A 5 ng/mL, simple average if tested more than once. In outline: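 Compound is first combined with recombinant human IL-17A for 1 h at rt, and the mix is added to adult normal human keratinocytes so that IL-17A is 5 ng/mL. After 24 h at 37° C in 5% FBS, G-CSF released into the medium is read by HTRF and IC50 derived.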

Assay [2] has as its target IL-17A(FLAG-Tagged): IL-17RA(His-Tagged) (Homo sapiens, UniProt Q16552, K93Q). The experiment in a line: IL-17A(FLAG-Tagged): IL-17RA(His-Tagged) Binding Disruption Eu-HTRF Assay. The settings on record: IL-17A/IL-17RA binding disruption, simple average if tested more than once. In outline: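 IC50 comes from a one-site competition fit of the HTRF 665/620 nm ratio. Compound dilutions (2-fold, 22 points) were held 1 h rt with FLAG-tagged IL-17A dimer, then His-tagged IL-17RA plus Eu-cryptate anti-FLAG and D2 anti-His antibodies were added for 2 h rt.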

UniProt Q16552, sequence (Q16552 with tags, fused parts or gaps K93Q): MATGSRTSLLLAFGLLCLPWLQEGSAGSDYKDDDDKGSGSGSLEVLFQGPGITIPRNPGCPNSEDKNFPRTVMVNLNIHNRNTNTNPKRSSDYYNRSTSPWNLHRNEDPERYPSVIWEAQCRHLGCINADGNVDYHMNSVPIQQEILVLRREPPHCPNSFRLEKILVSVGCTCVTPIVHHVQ

With `CCn1nccc1C(=O)N[C@H](c1cn2ncc([C@H](NC(=O)CC3CC(F)(F)C3)C3CC3)cc2n1)C1CCC(F)(F)CC1` [Example 126, N—((S)-(7-((R)-Cyclopropyl(2-(3,3-difluorocyclobutyl)acetamido)methyl)imidazo[1,2-b]pyridazin-2-yl)(4,4-difluorocyclohexyl)methyl)-1-ethyl-1H-pyrazole-5-carboxamide], the IC50 in assay [1] is 84 nM; in assay [2] it was 46 nM.

For the molecule `CCn1nccc1C(=O)N[C@H](c1cn2ncc([C@H](NC(=O)CCC(F)(F)F)C3CC3)cc2n1)C1CCC(F)(F)CC1` [Example 127, N—((S)-(7-((R)-Cyclopropyl(4,4,4-trifluorobutanamido)methyl)imidazo[1,2-b]pyridazin-2-yl)(4,4-difluorocyclohexyl)methyl)-1-ethyl-1H-pyrazole-5-carboxamide], the results for the half-inhibitory concentration (IC50) in assay [1] and in assay [2] were 100 nM and 40 nM, respectively.

Consider `Cc1nonc1C(=O)N[C@H](c1cn2ncc([C@H](NC(=O)CC3CC(F)(F)C3)C3CC3)cc2n1)C1CCC(F)(F)CC1` [Example 142, N—((S)-(7-((R)-Cyclopropyl(2-(3,3-difluorocyclobutyl)acetamido)methyl)imidazo[1,2-b]pyridazin-2-yl)(4,4-difluorocyclohexyl)methyl)-4-methyl-1,2,5-oxadiazole-3-carboxamide], for which the figures for the IC50 in assay [1] and in assay [2] were 140 nM and 34 nM, respectively.

Take `N#CC12CC(Cn3nncc3C(=O)N[C@H](c3cn4ncc([C@H](NC(=O)CCC(F)(F)F)C5CC5)cc4n3)C3CCC(F)(F)CC3)(C1)C2` [Example 145, 1-((3-Cyanobicyclo[1.1.1]pentan-1-yl)methyl)-N—((S)-(7-((R)-cyclopropyl(4,4,4-trifluorobutanamido)methyl)imidazo[1,2-b]pyridazin-2-yl)(4,4-difluorocyclohexyl)methyl)-1H-1,2,3-triazole-5-carboxamide]: the results for the IC50 in assay [1] and in assay [2] were 300 nM and 650 nM, respectively.

As to `N#CC12CC(Cn3ncc(C(=O)N[C@H](c4cn5ncc([C@H](NC(=O)CCC(F)(F)F)C6CC6)cc5n4)C4CCC(F)(F)CC4)n3)(C1)C2` [Example 146, 2-((3-Cyanobicyclo[1.1.1]pentan-1-yl)methyl)-N—((S)-(7-((R)-cyclopropyl(4,4,4-trifluorobutanamido)methyl)imidazo[1,2-b]pyridazin-2-yl)(4,4-difluorocyclohexyl)methyl)-2H-1,2,3-triazole-4-carboxamide], the IC50 came out at 710 nM in assay [1] and 680 nM in assay [2].

For the molecule `N#CC12CC(Cn3cc(C(=O)N[C@H](c4cn5ncc([C@H](NC(=O)CCC(F)(F)F)C6CC6)cc5n4)C4CCC(F)(F)CC4)nn3)(C1)C2` [Example 147, 1-((3-Cyanobicyclo[1.1.1]pentan-1-yl)methyl)-N—((S)-(7-((R)-cyclopropyl(4,4,4-trifluorobutanamido)methyl)imidazo[1,2-b]pyridazin-2-yl)(4,4-difluorocyclohexyl)methyl)-1H-1,2,3-triazole-4-carboxamide], the IC50 in assay [1] was more than 20000 nM; in assay [2] it was 1700 nM.

`CC1(C(=O)N[C@H](c2cn3ncc([C@H](NC(=O)CCC(F)(F)F)C4CC4)cc3n2)C2CCC(F)(F)CC2)CC1(F)F` (stereo partly drawn) [Example 148, N—((S)-(7-((R)-Cyclopropyl(4,4,4-trifluorobutanamido)methyl)imidazo[1,2-b]pyridazin-2-yl)(4,4-difluorocyclohexyl)methyl)-2,2-difluoro-1-methylcyclopropane-1-carboxamide]: the IC50 in assay [1] stood at 1700 nM; in assay [2] it was 940 nM.

In the case of `O=C(CCC(F)(F)F)N[C@@H](c1cnn2cc([C@@H](NC(=O)c3cncc(CCC(F)F)c3)C3CCC(F)(F)CC3)nc2c1)C1CC1` [Example 151, N—((S)-(7-((R)-Cyclopropyl(4,4,4-trifluorobutanamido)methyl)imidazo[1,2-b]pyridazin-2-yl)(4,4-difluorocyclohexyl)methyl)-5-(3,3-difluoropropyl)nicotinamide], the IC50 in assay [1] was 200 nM; in assay [2], 67 nM.
